Where a name gives a salt, the structure may show the parent alone.
Assays:
[1] = target: T1, IRAK4 (Homo sapiens, UniProt Q9NWZ3); test: 2-hour 10 μM ATP Biochemical Assay (MesoScale Detection format; IRAK4 phosphorylation of biotin labeled IRAK1 activation loop peptide); details: IRAK4 MSD BIOCHEMICAL (10 μM ATP) IC50 (μM), 1 nM IRAK4, 2 hours
T1 sequence (Q9NWZ3 1-460): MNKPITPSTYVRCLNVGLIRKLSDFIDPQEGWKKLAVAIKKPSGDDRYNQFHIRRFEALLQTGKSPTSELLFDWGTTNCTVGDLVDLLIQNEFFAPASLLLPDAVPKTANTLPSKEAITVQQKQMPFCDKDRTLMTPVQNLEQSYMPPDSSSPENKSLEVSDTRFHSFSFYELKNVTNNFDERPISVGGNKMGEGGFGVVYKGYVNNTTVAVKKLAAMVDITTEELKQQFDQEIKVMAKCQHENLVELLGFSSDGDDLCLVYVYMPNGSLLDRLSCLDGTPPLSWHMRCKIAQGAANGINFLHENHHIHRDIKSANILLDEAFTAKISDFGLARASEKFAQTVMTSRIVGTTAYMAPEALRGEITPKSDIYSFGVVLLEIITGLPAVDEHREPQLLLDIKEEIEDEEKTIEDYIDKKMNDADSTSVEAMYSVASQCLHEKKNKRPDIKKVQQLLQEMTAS
Outline: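 Kinase reaction run 2 h at 10 μM ATP with biotinylated IRAK1 activation-loop peptide, quenched with EDTA. Phospho-peptide captured on streptavidin MSD plates and detected with anti-phosphothreonine rabbit antibody plus Sulfo-Tag anti-rabbit electrochemiluminescence.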

[2] = target: T1, IRAK4; test: 2-hour 1 mM ATP IRAK4 Biochemical assay (as above, but with 100 pM IRAK4 and 1 mM ATP); details: IRAK4 MSD BIOCHEMICAL (1 mM ATP) IC50 (μM), 100 pM IRAK4, 2 hours
Outline: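 Run with 100 pM IRAK4 and 1 mM ATP for 2 hours, quenched with EDTA pH 8. Phosphorylated biotinylated peptide captured on streptavidin MSD plates and detected with anti-phosphothreonine antibody plus Sulfo-Tag secondary by electrochemiluminescence.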

| SMILES | IC50 [1] [µM] | IC50 [2] [µM] |
| --- | --- | --- |
| CCOc1cc2nc(C3CCOCC3)cn2cc1NC(=O)c1cccc(C(F)CF)n1 (stereo not drawn) [Example 239, 6-(1,2-difluoroethyl)-N-(7-ethoxy-2-(tetrahydro-2H-pyran-4-yl)imidazo[1,2-a]pyridin-6-yl)picolinamide] | 0.002 | 0.003 |
| CCOc1cc2nc(C3CCN(C(C)=O)C3)cn2cc1NC(=O)c1cccc(C(F)(F)F)n1 (stereo not drawn) [Example 69, N-(2-(1-acetylpyrrolidin-3-yl)-7-ethoxyimidazo[1,2-a]pyridin-6-yl)-6-(trifluoromethyl)picolinamide] | 0.001 | 0.001 |
| CCOc1cc2nc(C3CCOCC3)cn2cc1NC(=O)c1cccc(C2CC2)n1 [Example 366, 6-cyclopropyl-N-(7-ethoxy-2-(tetrahydro-2H-pyran-4-yl)imidazo[1,2-a]pyridin-6-yl)picolinamide] | 0.003 | 0.004 |
| CCOc1cc2nc(C3CCOCC3)cn2cc1NC(=O)c1cccc(OC(C)C)n1 [Example 220, N-(7-ethoxy-2-(tetrahydro-2H-pyran-4-yl)imidazo[1,2-a]pyridin-6-yl)-6-isopropoxypicolinamide] | 0.004 | 0.02 |
| CCOc1cc2nc(C3CCOCC3)cn2cc1NC(=O)c1cccc(C(F)F)n1 [Example 116, 6-(difluoromethyl)-N-(7-ethoxy-2-(tetrahydro-2H-pyran-4-yl)imidazo[1,2-a]pyridin-6-yl)picolinamide] | 0.001 | 0.001 |
| CCOc1cc2nc([C@H]3C[C@H](OC(C)C)C3)cn2cc1NC(=O)c1cccc(C(F)F)n1 [Example 135, 6-(difluoromethyl)-N-(7-ethoxy-2-((1r,3r)-3-isopropoxycyclobutyl)imidazo[1,2-a]pyridin-6-yl)picolinamide] | 0.002 | 0.006 |
| CCOc1cc2nc(CC3CCCO3)cn2cc1NC(=O)c1cccc(C(F)(F)F)n1 (stereo not drawn) [Example 60, N-(7-ethoxy-2-((tetrahydrofuran-2-yl)methyl)imidazo[1,2-a]pyridin-6-yl)-6-(trifluoromethyl)picolinamide] | 0.002 | 0.006 |
| CCOc1cc2nc(C(C)(C)O)cn2cc1NC(=O)c1cccc(C(F)F)n1 [Example 100, 6-(difluoromethyl)-N-(7-ethoxy-2-(2-hydroxypropan-2-yl)imidazo[1,2-a]pyridin-6-yl)picolinamide] | 0.008 | 0.011 |
| CCOc1cc2nc(C3CCOCC3)cn2cc1NC(=O)c1ccn(C2CC2(F)F)n1 (stereo not drawn) [Example 209, 1-(2,2-difluorocyclopropyl)-N-(7-ethoxy-2-(tetrahydro-2H-pyran-4-yl)imidazo[1,2-a]pyridin-6-yl)-1H-pyrazole-3-carboxamide] | 0.005 | 0.009 |
| CCOc1cc2nc(C3CN(C)C3)cn2cc1NC(=O)c1cccc(C(F)(F)F)n1 [Example 65, N-(7-ethoxy-2-(1-methylazetidin-3-yl)imidazo[1,2-a]pyridin-6-yl)-6-(trifluoromethyl)picolinamide] | 0.001 | 0.001 |
| CCOc1cc2nc([C@H](F)[C@H]3CCOC3)cn2cc1NC(=O)c1cccc(C(F)(F)F)n1 (single isomer, unassigned) [Example 146] | 0.001 | 0.001 |
| CCOc1cc2nc(CC)cn2cc1NC(=O)c1ccc2c(n1)CCC2 [Example 49, N-(7-ethoxy-2-ethylimidazo[1,2-a]pyridin-6-yl)-6,7-dihydro-5H-cyclopenta[b]pyridine-2-carboxamide] | 0.006 | 0.019 |
| CCOc1cc2nc(CCCOC)cn2cc1NC(=O)c1cccc(OC)n1 [Example 524, N-(7-ethoxy-2-(3-methoxypropyl)imidazo[1,2-a]pyridin-6-yl)-6-methoxypicolinamide] | 0.004 | 0.015 |
| CCOc1cc2nc(C3C[C@@H](C)O[C@@H](C)C3)cn2cc1NC(=O)c1cccc(C(F)(F)F)n1 (relative stereo) [Example 250, N-(2-((2R*,6S*)-2,6-dimethyltetrahydro-2H-pyran-4-yl)-7-ethoxyimidazo[1,2-a]pyridin-6-yl)-6-(trifluoromethyl)picolinamide] | 0.001 | 0.001 |
| CCOc1cc2nc(CC)cn2cc1NC(=O)c1ccn(C(F)F)n1 [Example 44, 1-(difluoromethyl)-N-(7-ethoxy-2-ethylimidazo[1,2-a]pyridin-6-yl)-1H-pyrazole-3-carboxamide] | 0.012 | 0.027 |
| CCOc1cc2nc(CF)cn2cc1NC(=O)c1cccc(C(F)(F)F)n1 [Example 20, N-(7-ethoxy-2-(fluoromethyl)imidazo[1,2-a]pyridin-6-yl)-6-(trifluoromethyl)picolinamide] | 0.003 | 0.006 |
| CCOc1cc2nc(C3CCOCC3)cn2cc1NC(=O)c1cccc(OC)n1 [Example 133, N-(7-ethoxy-2-(tetrahydro-2H-pyran-4-yl)imidazo[1,2-a]pyridin-6-yl)-6-methoxypicolinamide] | 0.002 | 0.004 |
| O=C(Nc1cn2cc(C3CCOCC3)nc2cc1OC1CCOCC1)c1cccc(C(F)F)n1 [Example 185, 6-(difluoromethyl)-N-(2-(tetrahydro-2H-pyran-4-yl)-7-((tetrahydro-2H-pyran-4-yl)oxy)imidazo[1,2-a]pyridin-6-yl)picolinamide] | 0.001 | 0.002 |
| O=C(Nc1cn2cc(C3CC3)nc2cc1OCC1CC1)c1cccc(C(F)F)n1 [Example 25, N-(2-cyclopropyl-7-(cyclopropylmethoxy)imidazo[1,2-a]pyridin-6-yl)-6-(difluoromethyl)picolinamide] | 0.002 | 0.004 |
| CCOc1cc2nc(CC3CCOC3)cn2cc1NC(=O)c1ccn(C(F)F)n1 (stereo not drawn) [Example 124, 1-(difluoromethyl)-N-(7-ethoxy-2-((tetrahydrofuran-3-yl)methyl)imidazo[1,2-a]pyridin-6-yl)-1H-pyrazole-3-carboxamide] | 0.002 | 0.002 |
| COc1nc(NC(=O)c2ccn(C)n2)cn2cc(C3CCOCC3)nc12 [Example 461, N-(8-methoxy-2-(tetrahydro-2H-pyran-4-yl)imidazo[1,2-a]pyrazin-6-yl)-1-methyl-1H-pyrazole-3-carboxamide Hydrochloride] | 0.033 | 0.148 |
| CCOc1cc2nc(C3CC3)cn2cc1NC(=O)c1cccc(N2CCOCC2)n1 [Example 131, N-(2-cyclopropyl-7-ethoxyimidazo[1,2-a]pyridin-6-yl)-6-morpholinopicolinamide] | 0.005 | 0.044 |
| CCOc1cc2nc(C(C)(F)F)cn2cc1NC(=O)c1cccc(C(F)F)n1 [Example 109, N-(2-(1,1-difluoroethyl)-7-ethoxyimidazo[1,2-a]pyridin-6-yl)-6-(difluoromethyl)picolinamide] | 0.002 | 0.003 |
| O=C(Nc1ccc2nc(CC3CCOC3)cn2c1)c1cccc(C(F)F)n1 (stereo not drawn) [Example 355, 6-(difluoromethyl)-N-(2-((tetrahydrofuran-3-yl)methyl)imidazo[1,2-a]pyridin-6-yl)picolinamide] | 0.008 | 0.042 |
| CCOc1cc2nc(C3CCOCC3)cn2cc1NC(=O)c1cccc(C#N)n1 [Example 365, 6-cyano-N-(7-ethoxy-2-(tetrahydro-2H-pyran-4-yl)imidazo[1,2-a]pyridin-6-yl)picolinamide] | 0.002 | 0.006 |
| CCOc1nc2nc(CCCOC)cn2cc1NC(=O)c1cccc(C(F)F)n1 [Example 242, 6-(difluoromethyl)-N-(7-ethoxy-2-(3-methoxypropyl)imidazo[1,2-a]pyrimidin-6-yl)picolinamide] | 0.001 | 0.003 |
| CN1CCC(Oc2cc3nc(C4CCOCC4)cn3cc2NC(=O)c2cccc(C(F)F)n2)C1=O (stereo not drawn) [Example 181, 6-(difluoromethyl)-N-(7-((1-methyl-2-oxopyrrolidin-3-yl)oxy)-2-(tetrahydro-2H-pyran-4-yl)imidazo[1,2-a]pyridin-6-yl)picolinamide] | 0.001 | 0.002 |
| CCOc1cc2nc(C3CCOCC3)cn2cc1NC(=O)c1cccc(N(C)C)n1 [Example 237, 6-(dimethylamino)-N-(7-ethoxy-2-(tetrahydro-2H-pyran-4-yl)imidazo[1,2-a]pyridin-6-yl)picolinamide] | 0.001 | 0.005 |
| CCOc1cc2nc(C(C)(C)O)cn2cc1NC(=O)c1cccc(C(F)(F)F)n1 [Example 19, N-(7-ethoxy-2-(2-hydroxypropan-2-yl)imidazo[1,2-a]pyridin-6-yl)-6-(trifluoromethyl)picolinamide] | 0.009 | 0.044 |
| C[C@@H]1C[C@@H](Oc2cc3nc(C4CCOCC4)cn3cc2NC(=O)c2cccc(C(F)F)n2)CCO1 (relative stereo) [Example 186, 6-(difluoromethyl)-N-(7-(((2R*,4S*)-2-methyltetrahydro-2H-pyran-4-yl)oxy)-2-(tetrahydro-2H-pyran-4-yl)imidazo[1,2-a]pyridin-6-yl)picolinamide] | 0.001 | 0.001 |
